# Patent US4349544A, “Method for increasing the milk let down in mammals” (Ceskoslovenska akademie ved, priority 1976, dated 1982)
# Where “and” joins values, the source holds several entries; their conditions need not be identical. Equal values may be shown once.
# What was measured:
# [1] = test system: uterine horn; experiment: In situ uterine horn contractions in estrogenized anesthetized female rats; type: in vivo, rat; details: for A = amplitude of contractions as a % of maximal contraction induced by a tetanic dose of 10 mcg/kg oxytocin: equipotent i.v. doses (10 mcg/kg dCOMOT, Me-OT; 1 mcg/kg dOT, OT), n=5; for A = amplitude of contractions as a % of maximal contraction induced by a tetanic dose of 10 mcg/kg oxytocin / C = duration of the response: mean, SEM on next line; for D = the presence of tetany in % of the animal group (single maximal contraction lasting more than 10 min.) / B = contraction frequency per 10 min. in % / C = duration of the response: equipotent i.v. doses (10 or 1 mcg/kg); for B = contraction frequency per 10 min. in %: mean ± SEM
# Description: 250-300 g body wt female rats (n=5 for each substance) were pre-treated for 3 days with 50 mcg di-ethylstilbestrol and 25 mg progesterone injected once daily i.m. in order to fully "estrogenize" the animals and have them all in the same functional state of myometrial reactivity. They were then anesthetized with urethane and prepared for in situ measurements of uterine horn contractions using Grass force-displacement treansducers and polygraph recording.
# [2] = test system: myometrium; details: relative to oxytocin; cited from earlier work
# [3] = test system: sows affected with hypogalactia or agalactia; type: in vivo, sow; details: for Litter size (Mean ± s.d.) 7 days after treatment / Litter size (Mean ± s.d.) at day of treatment: dCOMOT 0.6 mg i.v. or i.m., oxytocin 30-50 I.U.; for sows failing to eject milk on the day after treatment: day after 1st treatment; for Mean piglet weight per litter at day of treatment / Litter size (Mean ± s.d.) at day of treatment: day of treatment (baseline); for side effects after treatment: in vivo
# [4] = test system: pregnant cows; experiment: Induction of labor in pregnant Czech red-spotted cows; type: in vivo, cow; details: for Duration of Labor: individual animals
# Description: These experiments were carried out on 13 pregnant `Czech red-spotted` cows ranging from para I to para V. Average pregnancy in this breed is 290 days in duration.
# Nine of the animals were 278-290 days after insemination but actual active labor had not yet begun. These animals received no other medication (Table 7).
# Four of the animals were estimated to be near to term (cf. Table 4). 48 hours before the actual experiment they received 20 mg dexamethasone i.m. in an attempt to prepare the uterine cervix for active labor. In this group, in addition to close clinical follow-up, measurements were also made of: body temp., hemoglobin (Hb), glucose, total protein, inorganic P, Ca and Mg concentrations in the blood, both in the cow during the experiment and in the calf after birth, all by standard methods.
# The standard i.v. (jugular) injection dosage of dCOMOT was 5 mg. In those cases in which labor lasted longer than 6 hours (cf. Results) in second injection was given.
# The first group of 9 cows was managed under field conditions--in the barns of local farms. The four animals under more intensive study were kept in stalls set aside in a research building for one week prior to the onset of the experiment and for 3 weeks following delivery for further postnatal observations.
# [5] = test system: lactational activity; experiment: Biological activity E: lactational activity in vivo
# From the text: | E = lactational activity in vivo
# [6] = Partition coefficient between 2-butanol and 0.05% acetic acid; type: physicochemical; details: 2-butanol / 0.05% acetic acid
# From the text: K = partition coefficient between 2butanol and 0.05% acetic
# [7] = test system: healthy lactating sows; experiment: Milk-let-down effect in healthy lactating sows; type: in vivo, sow
# Description: The milk-let-down effect of 1-desamino-1-monocarba-([…](OMe))-oxytocin (hereinafter noted as dCOMOT) was tested in healthy lactating sows. The milk-let-down effect of 0.6 mg of dCOMOT injected intravenously lasted for from 4 to 9 hours.
# [8] = test system: isolated rat uterus; experiment: Biological activity A: isolated rat uterus; type: cell-based
# From the text: | A = isolated rat uterus,
# [9] = test system: antidiuretic in the rat; experiment: Biological activity F: antidiuretic in the rat; details: in vivo
# From the text: | F = antidiuretic in the rat.
# [10] = test system: in situ rat uterus; experiment: Biological activity B: in situ rat uterus; details: in vivo
# From the text: | B = in situ rat uterus,
# [11] = test system: isolated rat mammary gland; experiment: Biological activity D: isolated rat mammary gland; type: cell-based
# From the text: | D = isolated rat mammary gland,
# [12] = test system: uterus of gilts; type: in vivo, gilt; details: i.v., OT 1 to 5 IU, dCOMOT 0.2 to 1.0 mg
# Description: Four gilts were used. The experiments stated about 24 hours after onset of their second or third estrus. Their cycle duration was in the range 19-22 days. They were anesthetized by i.v. administration of about 15 mg/kg Na thionembutal (in 5% (w/v) solution)--additional doses were required during the experiment. The uterus was exposed through a midline abdominal incision. A recording balloon-tipped catheter was inserted into each uterine horn through a small incision about 10 cm from the uterine body (Clay-Adams catheters, PE 90-0.86 mm i.d.×1.27 mm o.d., with a micro-balloon sealed over the tip with a double tie of 0000 silk suture). The recording system was filled with saline and each catheter was affixed to the uterine wall with 000 silk suture to prevent motion of the balloon in the lumen. The catheters exited through the mid-abdominal incision and were connected to P-23AC pressure transducers, thence to 7PL DC preamplifiers. When we were satisfied that the recording system was functioning the abdominal incision was closed about the catheters. […] Unfortunately there was not enough material for a full scale dose-response investigation.
# [13] = sow, as in all other mammals; cited from earlier work
D = the presence of tetany in % of the animal group (single maximal contraction lasting more than 10 min.) [1],Molecule,A = amplitude of contractions as a % of maximal contraction induced by a tetanic dose of 10 mcg/kg oxytocin [1],B = contraction frequency per 10 min. in % [1],C = duration of the response [1],Mean piglet weight per litter 7 days after treatment [3],Litter size (Mean ± s.d.) 7 days after treatment [3],sows failing to eject milk on the day after treatment [3],Mean piglet weight per litter at day of treatment [3],Litter size (Mean ± s.d.) at day of treatment [3],side effects after treatment [3],other results
60%,1-deamino-OT [d OT],92%,65 ± 6.2%,46 min,,,,,,,
none,[2-Tyr(OMe)]-OT [Me--OT],68%,42 ± 5.4%,20.6 min,,,,,,,contractile activity on the myometrium in comparison with the natural hormone [2]: one tenth; vasoconstrictor activity in the myometrium in comparison with the natural hormone [2]: one hundredth
none,1-desamino-1-monocarba-(2-Tyr(OMe))-oxytocin [Ic],65%,60 ± 5.3%,185 min,2.64 ± 0.62 kg,8.92 ± 1.85,None,1.44 ± 0.37 kg,10.16 ± 1.65,No side effects were observed,"piglet weight gain during the observation period versus oxytocin group ([3]; 7 day observation period): gained more weight; health of calves ([4]; Group I): All the calves were healthy; Mean duration of labor from the dCOMOT injection ([4]; Group I, 9 non-pretreated cows, mean ± SEM): 14.25 ± 5.1 h; uterine tetany during induced labor ([4]; Group I, non-pretreated cows): no evidence of uterine tetany whatsoever; response following injection ([4]; Group I, non-pretreated cows, all cases): onset of regular uterinne contractions and increased tension in the udder; Duration of Labor ([4]; Group I, non-pretreated cows, dCOMOT i.v.): 26 h and 34 h and 22.5 h and 6 h and 24.5 h and 10 h and 1.5 h and 7 h and 15 h; health of calves ([4]; Group II): all calves were healthy; mean duration of labor ([4]; Group II, 4 dexamethasone pretreated cows): 4.3 ± 2.1 h; Duration of Labor ([4]; Group II, cows pretreated with 20 mg dexamethasone i.m. 48 hours before, listed as dCOMOT): 0.7 h and 8.2 h and 8.8 h and 8.6 h; uterine tetany during induced labor ([4]; Group II, dexamethasone pretreated cows): In no cases was uterine tetany observed; start of active labor after injection ([4]; Group II, dexamethasone pretreated cows, all cases): within minutes; Progeny Serum ([4]; Group II, dexamethasone pretreated cows, individual calves): 7.4; Biological activities E = lactational activity in vivo [5]: 35 IU/mg; K = partition coefficient [6]: 3.15; duration of secondary oscillation in intramammary pressure ([7]; 0.6 mg intravenously, healthy lactating sows): at least 4 hours; milk-let-down response after intramuscular injection ([7]; intramuscular injection, compared with i.v.): approximately the same response; Biological activities A = isolated rat uterus [8]: 10 IU/mg; Biological activities F = antidiuretic in the rat [9]: 0.9 IU/mg; Biological activities B = in situ rat uterus [10]: 40 IU/mg; Biological activities D = isolated rat mammary gland [11]: 67 IU/mg"
60%,"CC[C@H](C)[C@@H]1NC(=O)[C@H](Cc2ccc(O)cc2)NC(=O)[C@@H](N)CSSC[C@@H](C(=O)N2CCC[C@H]2C(=O)N[C@@H](CC(C)C)C(=O)NCC(N)=O)NC(=O)[C@H](CC(N)=O)NC(=O)[C@H](CCC(N)=O)NC1=O [oxytocin, reference compound]",90%,43 ± 3.2%,10.4 min,2.28 ± 0.44 kg,9.10 ± 2.10,Four out of 17,1.40 ± 0.22 kg,10.00 ± 1.95,No side effects were observed,"contraction rate after injection (baseline 6/10 min) [12]: 8/10; response duration ([12]; anesthetized gilts): approximately 10 min; duration of rapid increase of the intramammary pressure ([7]; 5-10 I.U. intravenous, healthy lactating sows): 5 to 10 min; biochemical half-life of injected hormone [13]: only a few minutes"
